Data taken from patent publication US8906925B2, “Pyrido[4,3-B]indoles containing rigid moieties” (Medivation Technologies, Inc., priority 2008, dated 2014).
Like-named read-outs stand apart in the source and are kept apart here.

Assays:
[1] = molecular target: histamine receptor H1 (Homo sapiens, UniProt P35367); test: Histamine H1 radioligand binding ([3H]Pyrilamine); conditions: read-out: Histamine Binding (1 μM) H1, percent inhibition of specific binding, 1 μM
Method in brief: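 Values are percent inhibition of specific [3H]pyrilamine (1.2 nM) binding with compounds at ≤1 μM (1% DMSO vehicle); 180 min incubation at 25 °C, pH 7.4 Tris buffer, on CHO-expressed human H1 receptor; 1 μM pyrilamine defined nonspecific binding, bound ligand counted after filtration.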

[2] = molecular target: T1, human recombinant histamine H2 receptor (Homo sapiens, UniProt P25021); test: Histamine H2 radioligand binding ([125I]Aminopotentidine); conditions: read-out: Histamine Binding (1 μM) H2, percent inhibition of specific binding, 1 μM
T1 construct: expressed in transfected cells; host or cells: Chinese hamster ovary (CHO) K1 cells
T1 sequence (P25021 whole entry): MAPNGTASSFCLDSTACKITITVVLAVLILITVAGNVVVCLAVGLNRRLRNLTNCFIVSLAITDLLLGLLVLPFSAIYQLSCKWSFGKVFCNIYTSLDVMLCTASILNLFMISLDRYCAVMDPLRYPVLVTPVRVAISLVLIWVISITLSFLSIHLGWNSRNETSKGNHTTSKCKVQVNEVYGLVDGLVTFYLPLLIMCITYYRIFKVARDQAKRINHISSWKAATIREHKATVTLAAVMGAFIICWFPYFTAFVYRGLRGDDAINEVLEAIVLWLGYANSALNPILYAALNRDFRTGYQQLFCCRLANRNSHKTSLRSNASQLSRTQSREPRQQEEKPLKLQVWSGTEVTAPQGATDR
Procedure: To evaluate in radioligand binding assays the activity of compounds of the invention, human recombinant histamine H2 receptor expressed in Chinese hamster ovary (CHO) K1 cells (Ruat, M., Proc. Natl. Acad. Sci. USA. 87(5):1658, 1990) in a 50 mM Phosphate buffer, pH 7.4 was used. Compounds of the invention were incubated with 0.1 nM [^125I]Aminopotentidine for 120 min. at 25° C. Non-specific binding was estimated in the presence of 3 μM Tiotidine. Receptor proteins were filtered and washed, the filters were then counted to determine [^125I]Aminopotentidine specifically bound.

[3] = molecular target: human dopamine D2L receptor (Homo sapiens, UniProt P14416); test: Dopamine D2L radioligand binding ([3H]Spiperone); conditions: compound at 1 μM
Chain of human dopamine D2L receptor (P14416 whole entry): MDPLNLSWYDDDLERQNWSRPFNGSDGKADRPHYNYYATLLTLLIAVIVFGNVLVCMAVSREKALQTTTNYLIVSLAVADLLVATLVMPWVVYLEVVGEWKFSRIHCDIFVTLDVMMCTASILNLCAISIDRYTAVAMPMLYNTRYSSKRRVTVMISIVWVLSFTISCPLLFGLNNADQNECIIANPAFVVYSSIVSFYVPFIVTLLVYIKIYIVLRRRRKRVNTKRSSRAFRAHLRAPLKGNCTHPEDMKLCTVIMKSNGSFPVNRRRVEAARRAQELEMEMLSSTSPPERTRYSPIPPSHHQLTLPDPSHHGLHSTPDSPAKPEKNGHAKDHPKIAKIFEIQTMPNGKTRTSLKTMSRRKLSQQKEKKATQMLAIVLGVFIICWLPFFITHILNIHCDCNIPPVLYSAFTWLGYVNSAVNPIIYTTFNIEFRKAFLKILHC
From the text: Non-specific binding was estimated in the presence of […] Haloperidol. Receptor proteins were filtered and washed, the filters were then counted to determine [^3H]Spiperone specifically bound. […] Biochemical assay results are presented as the percent inhibition of specific binding in Table 9.

[4] = molecular target: T2, human recombinant serotonin (5-Hydroxytryptamine) 5-HT2A receptor (Homo sapiens, UniProt P28223); test: Serotonin 5-HT2A radioligand binding ([3H]Ketanserin); conditions: read-out: Inhibition of ligand binding, Serotonin 5-HT2A (percent inhibition of specific binding), compound at 1 μM
T2 construct: expressed in transfected cells; host or cells: Chinese hamster ovary (CHO-K1) cells
T2 sequence (P28223 whole entry): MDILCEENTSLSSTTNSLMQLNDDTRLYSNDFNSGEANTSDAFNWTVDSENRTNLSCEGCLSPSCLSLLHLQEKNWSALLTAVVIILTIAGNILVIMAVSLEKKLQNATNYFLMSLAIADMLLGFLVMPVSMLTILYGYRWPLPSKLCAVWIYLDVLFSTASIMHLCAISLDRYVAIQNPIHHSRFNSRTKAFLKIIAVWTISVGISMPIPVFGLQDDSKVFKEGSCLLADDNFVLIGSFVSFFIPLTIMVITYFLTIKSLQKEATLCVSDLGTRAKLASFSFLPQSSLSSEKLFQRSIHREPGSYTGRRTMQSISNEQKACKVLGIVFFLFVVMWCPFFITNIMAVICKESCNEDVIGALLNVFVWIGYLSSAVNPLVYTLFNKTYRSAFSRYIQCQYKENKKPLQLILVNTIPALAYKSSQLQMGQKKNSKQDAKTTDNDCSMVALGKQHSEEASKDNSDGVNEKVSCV
Procedure: Compounds of the invention were incubated with 0.5 nM [^3H]Ketanserin for 60 min. at 25° C. Non-specific binding was estimated in the presence of 1 μM Mianserin. Receptor proteins were filtered and washed, the filters were then counted to determine [^3H]Ketanserin specifically bound.

[5] = molecular target: T3, human recombinant serotonin (5-Hydroxytryptamine) 5-HT2C receptor (Homo sapiens, UniProt P28335); test: Serotonin 5-HT2C radioligand binding ([3H]Mesulergine); conditions: compound at 1 μM; read-out: Inhibition of ligand binding, Serotonin 5-HT2C (percent inhibition of specific binding)
T3 construct: expressed in transfected cells; host or cells: Chinese hamster ovary (CHO-K1) cells
T3 sequence (P28335 33-458): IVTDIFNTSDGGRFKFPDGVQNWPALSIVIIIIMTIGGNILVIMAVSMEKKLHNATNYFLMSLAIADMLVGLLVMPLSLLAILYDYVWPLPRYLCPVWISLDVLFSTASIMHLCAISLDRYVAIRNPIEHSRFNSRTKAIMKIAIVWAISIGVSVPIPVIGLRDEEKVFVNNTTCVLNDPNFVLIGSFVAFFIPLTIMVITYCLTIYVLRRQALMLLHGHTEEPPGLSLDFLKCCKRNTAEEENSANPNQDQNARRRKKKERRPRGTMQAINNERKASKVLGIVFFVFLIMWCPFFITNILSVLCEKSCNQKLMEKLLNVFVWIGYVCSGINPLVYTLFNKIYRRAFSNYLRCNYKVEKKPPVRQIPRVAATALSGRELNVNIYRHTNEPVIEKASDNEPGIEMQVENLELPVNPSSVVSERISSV
Method in brief: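 Compounds tested at 1 μM or lower (1% DMSO vehicle) for displacement of 1 nM [3H]Mesulergine over 60 min at 25° C. Specific binding determined by filtration counting, with 1 μM Mianserin defining non-specific binding; values are percent inhibition.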

[6] = molecular target: T4, human recombinant serotonin (5-Hydroxytryptamine) 5-HT6 receptor (Homo sapiens, UniProt P50406); test: Serotonin 5-HT6 radioligand binding ([3H]LSD); conditions: compound at 1 μM; read-out: Inhibition of ligand binding, Serotonin 5-HT6 (percent inhibition of specific binding)
T4 construct: expressed in transfected cells; host or cells: human HeLa cells
T4 sequence (P50406 whole entry): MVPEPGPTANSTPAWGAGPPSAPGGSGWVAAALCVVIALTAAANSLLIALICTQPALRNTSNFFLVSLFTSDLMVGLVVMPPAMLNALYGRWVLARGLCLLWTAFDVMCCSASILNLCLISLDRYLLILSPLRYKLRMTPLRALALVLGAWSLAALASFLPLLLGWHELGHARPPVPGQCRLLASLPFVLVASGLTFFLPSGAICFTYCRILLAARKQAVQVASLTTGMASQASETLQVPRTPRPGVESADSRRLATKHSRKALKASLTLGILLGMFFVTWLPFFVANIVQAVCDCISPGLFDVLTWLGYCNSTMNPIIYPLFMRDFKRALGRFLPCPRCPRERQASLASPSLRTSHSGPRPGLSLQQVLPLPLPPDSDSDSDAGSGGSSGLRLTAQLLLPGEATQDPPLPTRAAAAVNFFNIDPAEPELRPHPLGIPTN
Procedure: Compounds of the invention were incubated with 1.5 nM [3H]Lysergic acid diethylamide (LSD) for 120 min. at 37° C. […] Receptor proteins were filtered and washed, the filters were then counted to determine [3H]LSD specifically bound. Compounds were screened at 1 μM or lower, using 1% DMSO as vehicle. Biochemical assay results are presented as the percent inhibition of specific binding in Table 10.

[7] = molecular target: human recombinant serotonin (5-Hydroxytryptamine) 5-HT7 receptor (Homo sapiens, UniProt P34969); test: Serotonin 5-HT7 radioligand binding ([3H]LSD); conditions: compound at 1 μM; read-out: Inhibition of ligand binding, Serotonin 5-HT7 (percent inhibition of specific binding)
Chain of human recombinant serotonin (5-Hydroxytryptamine) 5-HT7 receptor (P34969 whole entry): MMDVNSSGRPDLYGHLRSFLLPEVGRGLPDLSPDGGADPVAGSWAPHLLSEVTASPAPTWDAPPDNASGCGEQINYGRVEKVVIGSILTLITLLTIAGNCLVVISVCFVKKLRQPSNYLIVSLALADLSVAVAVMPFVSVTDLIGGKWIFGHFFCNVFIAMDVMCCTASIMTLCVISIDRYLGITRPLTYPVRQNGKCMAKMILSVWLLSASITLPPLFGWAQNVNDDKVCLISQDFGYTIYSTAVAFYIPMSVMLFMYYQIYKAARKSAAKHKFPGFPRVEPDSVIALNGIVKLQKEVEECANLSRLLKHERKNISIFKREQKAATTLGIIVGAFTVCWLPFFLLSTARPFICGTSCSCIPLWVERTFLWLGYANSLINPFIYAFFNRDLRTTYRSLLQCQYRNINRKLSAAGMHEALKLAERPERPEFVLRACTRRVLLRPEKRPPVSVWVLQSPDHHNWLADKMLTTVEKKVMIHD
From the text: Receptor proteins were filtered and washed, the filters were then counted to determine [^3H]LSD specifically bound.

[8] = percent inhibition of specific binding, read-out: Inhibition of ligand binding, Dopamine D2L
[9] = […] [3H]Spiperone, read-out: Inhibition of ligand binding, Dopamine D2L (percent inhibition of specific binding)

Chain of histamine receptor H1 (P35367 whole entry): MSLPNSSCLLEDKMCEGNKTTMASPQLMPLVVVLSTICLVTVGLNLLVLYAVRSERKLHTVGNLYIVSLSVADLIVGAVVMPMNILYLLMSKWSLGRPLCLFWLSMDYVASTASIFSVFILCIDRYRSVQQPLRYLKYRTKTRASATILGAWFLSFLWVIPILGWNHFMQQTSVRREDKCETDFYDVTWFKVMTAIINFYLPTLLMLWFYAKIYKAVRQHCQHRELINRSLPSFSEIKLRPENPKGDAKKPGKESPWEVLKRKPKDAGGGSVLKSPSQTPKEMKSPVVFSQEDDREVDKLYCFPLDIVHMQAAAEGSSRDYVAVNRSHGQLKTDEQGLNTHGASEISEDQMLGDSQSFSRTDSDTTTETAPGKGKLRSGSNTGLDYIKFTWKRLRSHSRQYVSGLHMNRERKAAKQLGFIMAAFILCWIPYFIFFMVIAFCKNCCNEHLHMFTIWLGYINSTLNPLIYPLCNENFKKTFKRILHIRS

`COc1ccc2c(c1)c1c(n2/C=C(/C)c2ccncc2)CCN(C)C1` [Compound 239, (Z)-8-methoxy-2-methyl-5-(2-(pyridin-4-yl)prop-1-enyl)-2,3,4,5-tetrahydro-1H-pyrido[4,3-b]indole] gave an inhibition at 1 µM [1] of 14%, an inhibition at 1 µM [2] of 28% and an inhibition at 1 µM [3, 8] of 39%. For the same molecule, the inhibition at 1 µM [4] was 93%, the inhibition at 1 µM [5] was 93% and the inhibition at 1 µM [6] was 104%. It also gave an inhibition at 1 µM [7] of 98%.
With `CN1CCc2c(c3ccccc3n2CC(C)(O)c2ccncc2)C1` (stereo not drawn) [Compound 186, 1-(2-methyl-3,4-dihydro-1H-pyrido[4,3-b]indol-5(2H)-yl)-2-(pyridin-4-yl)propan-2-ol] the inhibition at 1 µM [1] was 1%, the inhibition at 1 µM [2] was 22% and the inhibition at 1 µM [3, 8] was 3%. For the same molecule, the inhibition at 1 µM [4] was 74%, the inhibition at 1 µM [5] was 72% and the inhibition at 1 µM [6] was 12%. It also gave an inhibition at 1 µM [7] of 37%.
For `CN1CCc2c(c3cc(Cl)ccc3n2CC(O)c2ccncc2)C1` (stereo not drawn) [Compound 183, 2-(8-chloro-2-methyl-3,4-dihydro-1H-pyrido[4,3-b]indol-5(2H)-vyl)-1-(pyridin-4-yl)ethanol], the inhibition at 1 µM [1] was 91%, the inhibition at 1 µM [2] was 47% and the inhibition at 1 µM [3, 8] was 15%. For the same molecule, the inhibition at 1 µM [4] was 82%, the inhibition at 1 µM [5] was 78% and the inhibition at 1 µM [6] was 72%. It also gave an inhibition at 1 µM [7] of 74%.
For `C/C(=C\n1c2c(c3cc(C)ccc31)CN(C)CC2)c1cccc(F)c1` [Compound 226, (E)-5-(2-(3-fluorophenyl)prop-1-enyl)-2,8-dimethyl-2,3,4,5-tetrahydro-1H-pyrido[4,3-b]indole], the inhibition at 1 µM [1] was 71%, the inhibition at 1 µM [2] was 100% and the inhibition at 1 µM [3, 8] was 46%. It also gave an inhibition at 1 µM [4] of 98%, an inhibition at 1 µM [5] of 100% and an inhibition at 1 µM [6] of 101%. For the same molecule, the inhibition at 1 µM [7] was 100%.
Work on `C/C(=C\n1c2c(c3cc(Cl)ccc31)CN(C)CC2)c1cccc(F)c1` [Compound 234, (E)-8-chloro-5-(2-(3-fluorophenyl)prop-1-enyl)-2-methyl-2,3,4,5-tetrahydro-1H-pyrido[4,3-b]indole] yielded an inhibition at 1 µM [1] of 69%, an inhibition at 1 µM [2] of 94% and an inhibition at 1 µM [3, 8] of 73%. It also gave an inhibition at 1 µM [4] of 100%, an inhibition at 1 µM [5] of 102% and an inhibition at 1 µM [6] of 101%. It also gave an inhibition at 1 µM [7] of 99%.
`C/C(=C/n1c2c(c3cc(C)ccc31)CN(C)CC2)c1ccccc1Cl` [Compound 242, (Z)-5-(2-(2-chlorophenyl)prop-1-enyl)-2,8-dimethyl-2,3,4,5-tetrahydro-1H-pyrido[4,3-b]indole] was tested, and the inhibition at 1 µM [1] was 88%, the inhibition at 1 µM [2] was 97% and the inhibition at 1 µM [3, 8] was 55%. For the same molecule, the inhibition at 1 µM [4] was 98%, the inhibition at 1 µM [5] was 99% and the inhibition at 1 µM [6] was 107%. The inhibition at 1 µM [7] was 100%.
Molecule `COc1ccc(/C(C)=C/n2c3c(c4cc(C)ccc42)CN(C)CC3)cc1` [Compound 236, (E)-5-(2-(4-methoxyphenyl)prop-1-enyl)-2,8-dimethyl-2,3,4,5-tetrahydro-1H-pyrido[4,3-b]indole] has an inhibition at 1 µM [1] of 20%, an inhibition at 1 µM [2] of 99% and an inhibition at 1 µM [3, 8] of 76%. It also gave an inhibition at 1 µM [4] of 99%, an inhibition at 1 µM [5] of 102% and an inhibition at 1 µM [6] of 98%. It also gave an inhibition at 1 µM [7] of 93%.
Molecule `C/C(=C\n1c2c(c3c(Cl)c(Cl)ccc31)CN(C)CC2)c1ccc(F)cc1` [Compound 232, (E)-8,9-dichloro-5-(2-(4-fluorophenyl)prop-1-enyl)-2-methyl-2,3,4,5-tetrahydro-1H-pyrido[4,3-b]indole] has an inhibition at 1 µM [1] of 71%, an inhibition at 1 µM [2] of 95% and an inhibition at 1 µM [3, 8] of 91%. It also gave an inhibition at 1 µM [4] of 99%, an inhibition at 1 µM [5] of 98% and an inhibition at 1 µM [6] of 103%. It also gave an inhibition at 1 µM [7] of 84%.
In the case of `C/C(=C\n1c2c(c3cc(Cl)ccc31)CN(C)CC2)c1cc(F)c(F)cc1Cl` [Compound 241, (E)-8-chloro-5-(2-(2-chloro-4,5-difluorophenyl)prop-1-enyl)-2-methyl-2,3,4,5-tetrahydro-1H-pyrido[4,3-b]indole], the inhibition at 1 µM [1] is reported as 89%, the inhibition at 1 µM [2] is reported as 98% and the inhibition at 1 µM [3, 8] is reported as 47%. It also gave an inhibition at 1 µM [4] of 93%, an inhibition at 1 µM [5] of 100% and an inhibition at 1 µM [6] of 101%. The inhibition at 1 µM [7] was 96%.
Molecule `C=C(Cn1c2c(c3cc(OC)ccc31)CN(C)CC2)c1ccncc1` [Compound No. 356, 8-methoxy-2-methyl-5-(2-(pyridin-4-yl)allyl)-2,3,4,5-tetrahydro-1H-pyrido[4,3-b]indole] has an inhibition at 1 µM [1] of 70%, an inhibition at 1 µM [2] of 17% and an inhibition at 1 µM [3, 9] of 37%. The inhibition at 1 µM [4] was 81%, the inhibition at 1 µM [5] was 83% and the inhibition at 1 µM [6] was 90%. For the same molecule, the inhibition at 1 µM [7] was 60%.
Work on `C/C(=C/n1c2c(c3cc(Cl)c(Cl)cc31)CN(C)CC2)c1ccncc1` [Compound 244, (Z)-7,8-dichloro-2-methyl-5-(2-(pyridin-4-yl)prop-1-enyl)-2,3,4,5-tetrahydro-1H-pyrido[4,3-b]indole] yielded an inhibition at 1 µM [1] of 87%, an inhibition at 1 µM [2] of 88% and an inhibition at 1 µM [3, 8] of 86%. The inhibition at 1 µM [4] was 103%, the inhibition at 1 µM [5] was 99% and the inhibition at 1 µM [6] was 106%. It also gave an inhibition at 1 µM [7] of 99%.
With `C/C(=C/n1c2c(c3cc(C)ccc31)CN(C)CC2)c1ccc(Cl)c(Cl)c1` [Compound 247, (Z)-5-(2-(3,4-dichlorophenyl)prop-1-enyl)-2,8-dimethyl-2,3,4,5-tetrahydro-1H-pyrido[4,3-b]indole] the inhibition at 1 µM [1] was 75%, the inhibition at 1 µM [2] was 99% and the inhibition at 1 µM [3, 8] was 28%. For the same molecule, the inhibition at 1 µM [4] was 101%, the inhibition at 1 µM [5] was 100% and the inhibition at 1 µM [6] was 103%. For the same molecule, the inhibition at 1 µM [7] was 101%.
With `C=C(Cn1c2c(c3cccc(F)c31)CN(C)CC2)c1ccc(F)cc1` [Compound No. 353, 6-fluoro-5-(2-(4-fluorophenyl)allyl)-2-methyl-2,3,4,5-tetrahydro-1H-pyrido[4,3-b]indole] the inhibition at 1 µM [1] was 100%, the inhibition at 1 µM [2] was 93% and the inhibition at 1 µM [3, 9] was 92%. For the same molecule, the inhibition at 1 µM [4] was 98%, the inhibition at 1 µM [5] was 97% and the inhibition at 1 µM [6] was 100%. For the same molecule, the inhibition at 1 µM [7] was 87%.
Work on `C/C(=C/n1c2c(c3cc(C)ccc31)CN(C)CC2)c1cccc(F)c1` [Compound 225, (Z)-5-(2-(3-fluorophenyl)prop-1-enyl)-2,8-dimethyl-2,3,4,5-tetrahydro-1H-pyrido[4,3-b]indole] yielded an inhibition at 1 µM [1] of 81%, an inhibition at 1 µM [2] of 98% and an inhibition at 1 µM [3, 8] of 43%. It also gave an inhibition at 1 µM [4] of 99%, an inhibition at 1 µM [5] of 100% and an inhibition at 1 µM [6] of 103%. The inhibition at 1 µM [7] was 94%.
With `C/C(=C\n1c2c(c3cccc(Cl)c31)CN(C)CC2)c1ccncc1` [Compound 222, (E)-6-chloro-2-methyl-5-(2-(pyridin-4-yl)prop-1-enyl)-2,3,4,5-tetrahydro-1H-pyrido[4,3-b]indole] the inhibition at 1 µM [1] was 25%, the inhibition at 1 µM [2] was 91% and the inhibition at 1 µM [3, 8] was 82%. The inhibition at 1 µM [4] was 100%, the inhibition at 1 µM [5] was 99% and the inhibition at 1 µM [6] was 102%. The inhibition at 1 µM [7] was 69%.
